Assay results reported in ChEMBL document CHEMBL1201862, “PubChem BioAssay data set” (2004).
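Compound exposure: 48 hours, 5 concentrations, 96-well plates. GI50 marks 50% less growth.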 Active and inactive are the calls of the source. Rule as the data show it: active = GI50 up to about 1.1 µM and inactive = higher.

Columns and labels:
Assay in all cases: growth of human tumour cells (NCI), 48 h
[1] = test system: 786-0
[2] = test system: A549
[3] = test system: ACHN
[4] = test system: CAKI-1
[5] = test system: HCT-15
[6] = test system: HOP-62
[7] = test system: IGROV-1
[8] = test system: MDA-MB-435
[9] = test system: Malme-3M
[10] = test system: RPMI-8226
[11] = test system: SF-295
[12] = test system: SK-MEL-28
[13] = test system: SK-MEL-5
[14] = test system: SK-OV-3
[15] = test system: SNB-19
[16] = test system: SNB-75
[17] = test system: SR
[18] = test system: UACC-257
[19] = test system: UACC-62

| SMILES | GI50 [1] | GI50 [2] | GI50 [3] | GI50 [4] | GI50 [5] [µM] | GI50 [6] | GI50 [7] | GI50 [8] | GI50 [9] | GI50 [10] | GI50 [11] | GI50 [12] | GI50 [13] | GI50 [14] | GI50 [15] | GI50 [16] | GI50 [17] | GI50 [18] | GI50 [19] |
| --- | --- | --- | --- | --- | --- | --- | --- | --- | --- | --- | --- | --- | --- | --- | --- | --- | --- | --- | --- |
| CCC(=O)Nc1ccc(NS(=O)(=O)c2ccc(Cl)cc2)cc1 | > 100 µM (inactive) | > 100 µM (inactive) | > 100 µM (inactive) | 91.4 µM (inactive) | > 100 | > 100 µM (inactive) | > 100 µM (inactive) | > 100 µM (inactive) | > 100 µM (inactive) | 17.7 µM (inactive) | 45.4 µM (inactive) | > 100 µM (inactive) | 47.6 µM (inactive) | > 100 µM (inactive) | > 100 µM (inactive) | > 100 µM (inactive) | 89.3 µM (inactive) | 87.7 µM (inactive) | 99.3 µM (inactive) |
| CCCCCC/C=C\CCCCCCCCCc1cccc(OC)c1O | > 100 µM (inactive) | > 100 µM (inactive) | > 100 µM (inactive) | > 100 µM (inactive) | > 100 | > 100 µM (inactive) | > 100 µM (inactive) | > 100 µM (inactive) | > 100 µM (inactive) | > 100 µM (inactive) | > 100 µM (inactive) | > 100 µM (inactive) | > 100 µM (inactive) | > 100 µM (inactive) | > 100 µM (inactive) | > 100 µM (inactive) | > 10 µM (inactive) | > 100 µM (inactive) | > 100 µM (inactive) |
| c1ccc([P+](CCCCCCCC[P+](c2ccccc2)(c2ccccc2)c2ccccc2)(c2ccccc2)c2ccccc2)cc1 | 16.6 µM (inactive) | 5.73 µM (inactive) | 58.9 µM (inactive) | > 100 µM (inactive) | > 100 | 3.64 µM (inactive) | 2.4 µM (inactive) | 4.92 µM (inactive) | 16.4 µM (inactive) | 1.87 µM (inactive) | 6.53 µM (inactive) | 16.9 µM (inactive) | 8.05 µM (inactive) | 17.3 µM (inactive) | 0.396 µM (active) | 0.307 µM (active) | 23 µM (inactive) | 0.92 µM (active) | 24.1 µM (inactive) |
| COc1cccc(Nc2nc(NNC(=O)Cc3ccccc3)nc(NNC(=O)c3ccncc3)n2)c1 | > 10 µM (inactive) | > 10 µM (inactive) | > 100 µM (inactive) | > 10 µM (inactive) | 7.93 | > 10 µM (inactive) | > 10 µM (inactive) | 52.8 µM (inactive) | > 10 µM (inactive) | > 10 µM (inactive) | > 100 µM (inactive) | > 100 µM (inactive) | > 10 µM (inactive) | > 10 µM (inactive) | > 100 µM (inactive) | 53.5 µM (inactive) | 6.62 µM (inactive) | > 10 µM (inactive) | 4.71 µM (inactive) |
| CCOC(=O)NC(NNc1ccc([N+](=O)[O-])cc1[N+](=O)[O-])(C(F)(F)F)C(F)(F)F | 43.9 µM (inactive) | 47 µM (inactive) | 43.3 µM (inactive) | 33 µM (inactive) | 27.9 | 32.9 µM (inactive) | 54.8 µM (inactive) | 42.6 µM (inactive) | 53.3 µM (inactive) | 17.9 µM (inactive) | 59.7 µM (inactive) | 52.4 µM (inactive) | 60.8 µM (inactive) | 23.4 µM (inactive) | 35.2 µM (inactive) | 45.7 µM (inactive) | 5.79 µM (inactive) | 43.1 µM (inactive) | 74.5 µM (inactive) |
| CCOC(=O)c1c(N2CCCC2)[nH]c(=O)c(C(c2ccc(OC)cc2)c2c(O)c(C(=O)OCC)c(N3CCCC3)[nH]c2=O)c1O | > 100 µM (inactive) | > 100 µM (inactive) | 56 µM (inactive) | 28.4 µM (inactive) | > 100 | 46.6 µM (inactive) | – | > 100 µM (inactive) | > 100 µM (inactive) | > 100 µM (inactive) | 25.7 µM (inactive) | > 100 µM (inactive) | > 100 µM (inactive) | > 100 µM (inactive) | > 100 µM (inactive) | 21.3 µM (inactive) | 88.9 µM (inactive) | > 100 µM (inactive) | > 100 µM (inactive) |
| CC(=O)Nn1c(Cc2ccc(Cl)cc2)nn(C)c1=O | > 100 µM (inactive) | > 100 µM (inactive) | > 100 µM (inactive) | > 100 µM (inactive) | > 100 | > 100 µM (inactive) | > 100 µM (inactive) | > 100 µM (inactive) | > 100 µM (inactive) | > 100 µM (inactive) | > 100 µM (inactive) | > 100 µM (inactive) | > 100 µM (inactive) | > 100 µM (inactive) | > 100 µM (inactive) | > 100 µM (inactive) | > 100 µM (inactive) | > 100 µM (inactive) | > 100 µM (inactive) |
| COc1cc2cc(C(=O)N3C[C@H](CCl)c4c3cc(O)c3ccccc43)[nH]c2c(OC)c1OC | 0.0861 µM (active) | 0.252 µM (active) | 0.0393 µM (active) | 0.789 µM (active) | 0.192 | 0.044 µM (active) | 0.121 µM (active) | 0.222 µM (active) | 0.152 µM (active) | 0.121 µM (active) | 0.107 µM (active) | 0.267 µM (active) | 0.0137 µM (active) | 0.515 µM (active) | 0.246 µM (active) | 0.184 µM (active) | 0.0224 µM (active) | – | 0.106 µM (active) |
